Results as given in patent publication US10821064B2, “Anti-dandruff agents” (Croda International PLC, priority 2015, dated 2020).

Experiments:
[1] = tested on: Malassezia furfur (ATCC #38593); test: Malassezia furfur growth inhibition assay (96-well, Alamar blue); type: cell-based
Experimental: Malassezia furfur (ATCC #38593) was cultured on Media C agar for 7 days at 37° C. Yeast colonies were then harvested into 0.9% saline sterile diH2O and diluted to approximately 1.5×10^6 CFU/mL using a 0.5 MacFarland standard (Fisher # R20410) to create an assay inoculum. Assay inoculum was added to sterile Media C broth to a final concentration of 4.5×10^4 CFU/mL. Assays were carried out in 96 well plates with a final well volume of 100 μL. Extract fractions and pure compounds were tested in triplicate against each organism. Extract fractions and pure compounds were re-suspended in sterile 20% DMSO. Extract fractions were assayed at two concentrations (50 and 250 μg/mL) with a final well volume concentration of 2% DMSO while pure compounds were serially diluted to generate a range of eight concentrations (128 μg/mL to 1 μg/mL) in a final well volume concentration of 2% DMSO. Each plate contained eight un-inoculated positive controls (media+20% DMSO), eight untreated negative controls (Media+20% DMSO+organism), and one column containing a concentration range of a ketoconazole as a control antibiotic. The assay plate was incubated at 37° C. for 5 days after which growth within the wells were visualised and photographed with a UVP Biospectrum 500 imaging system. Alamar blue was then added to each well at 10% of the culture volume (11 μL in 100 μL). Fluorescence was monitored using a BioTek Synergy HT plate reader at 530/25 excitation, 590/35 emission and 35 sensitivity at both time zero and 4 hrs after Alamar blue was added. After subtracting the time zero emission 590 nm measurement from the final reading the inferred percentage of microorganism survival relative to vehicle control wells were calculated and the IC50 was determined.

[2] = tested on: Adult human epidermal keratinocytes (Heka); test: Keratinocyte cytotoxicity assay (Alamar blue); type: cell-based
Experimental: Adult human epidermal keratinocytes (Heka) isolated from skin (Invitrogen # C-005-5C) were grown and maintained in 15 mL of EPilife medium (Invitrogen # M-EPI-500) supplemented with HKGS growth supplements (Invitrogen # S-001-5) (0.2% v/v bovine pituitary extract (BPE), 5 μg/mL bovine insulin, 0.18 μg/mL hydrocortisone, 5 μg/mL bovine transferrin, 0.2 ng/mL human epidermal growth factor) and 50 μg/mL gentamicin (Sigma # G1397-10ML) in T75 cm^2 cell culture flasks (VWR # CABD353136) and incubated at 37° C. in a humidified atmosphere of 5% CO2. Growth medium was refreshed every 2 days until the cells reached 50% confluency and then the medium was refreshed every 24 hrs until 80% confluency was obtained.
At 80% confluency, the cells were counted, diluted and plated into 96 well treated cell culture plates (VWR #29442-054) at a cell density of 10000 cells per well in 90 μL of respective growth medium. […]
(§1) All samples were tested in triplicate. […] Fluorescence was monitored using a BioTek Synergy HT plate reader at 530/25 excitation, 590/35 emission and 35 sensitivity at both time zero and 4 hrs after Alamar blue was added. After subtracting the time zero emission 590 nm measurement from the final reading the inferred percentage of microorganism survival relative to vehicle control wells were calculated and the IC50 was determined.

[3] = tested on: Human foreskin BJ fibroblast cells (ATCC CRL-2522); test: Fibroblast cytotoxicity assay (Alamar blue); type: cell-based
Experimental: Human foreskin BJ fibroblast cells (ATCC CRL-2522) were grown and maintained in 15 mL of Eagle's minimal essential medium (Sigma M5650) supplemented with 10% fetal bovine serum (VWR # CA95043-976) and […] penicillin and 0.1 mg/mL streptomycin (VWR # CA12001-692) in T75 cm^2 cell culture flasks (VWR # CABD353136) at 37° C. in a humidified atmosphere of 5% CO2. Culture medium was refreshed every two to three days and cells were not allowed to exceed 80% confluency.
At 80% confluency, the cells were counted, diluted and plated into 96 well treated cell culture plates (VWR #29442-054) at a cell density of 10000 cells per well in 90 μL of respective growth medium. All media used for the assay were the same without the addition of antibiotics. The plates were incubated at 37° C. in a humidified atmosphere of 5% CO2 to allow cells to adhere to the plates for 24 hrs before treatment. DMSO was used as the vehicle at a final concentration of 1% in the wells. […]
as §1

M. furfur = test: Anti-fungal effect against M. furfur in a shampoo type formulation; type: cell-based, Malassezia furfur
Experimental: Experimentation was carried out to assess the anti-fungal effect of the fumagillin derivative alone and in combination with pseurotin A against M. furfur in a shampoo type formulation.
Compositions of the fumagillin derivative with and without pseurotin A were created and suspended into the baby shampoo. The shampoo mixture was then diluted out into the assay in a similar manner to Head & Shoulders, so that various dilution points in the assay represented multiple sub-inhibitory concentrations of the fumagillin derivative and pseurotin A.

Row | IC50 ([1]; Malassezia furfur, ATCC38593, 120 h, 37° C., 5 days, Alamar blue) | MIC ([1]; Malassezia furfur, ATCC38593, 120 h, 37° C., 5 days, pure compound 128 to 1 μg/mL) | MIC (M. furfur; Malassezia furfur, fumagillin derivative alone, suspended in baby shampoo) | Structure (SMILES) | IC50 ([2]; Homo sapiens, HEKa, 24 hrs treatment, cytotoxicity) | Keratinocyte MIC ([2]; human, 24 h) | IC50 ([3]; Homo sapiens, Fibroblast, 24 hrs treatment, cytotoxicity) | Fibroblast MIC ([3]; human, 24 h) | antifungal effect against Malassezia yeasts ([1]; screening of extracts) | antifungal effect against M. furfur (M. furfur; shampoo type formulation, alone or as mixture at sub-MIC concentrations)
1 | ~0.7 µg/mL | ~2 µg/mL | 1.25 µg/mL | CO[C@@H]1[C@H](OC(=O)/C=C/[C@H]2O[C@@H]2C)CC[C@]2(CO2)[C@H]1[C@@]1(C)O[C@@H]1CC=C(C)C [Fumagillin derivative] | > 64 µg/mL | >64 µg/mL | > 64 µg/mL | >64 µg/mL |  | 
2 |  |  |  | CC/C=C\[C@H](O)[C@H](O)C1=C(C)C(=O)[C@]2(O1)C(=O)N[C@@](OC)(C(=O)c1ccccc1)[C@@H]2O [Pseurotin A, pseurotin A, reference compound] |  |  |  |  | some activity against M. furfur | antifunimgal effect against M. furfur was observed
